This test addresses T1, diphosphoinositol pentakisphosphate kinase 2 (PPIP5K2) (Homo sapiens, UniProt O43314).
T1 construct: kinase domain, residues 41–366 (crystal); residues 1–366 (kinase assay)
T1 sequence (O43314 1-366): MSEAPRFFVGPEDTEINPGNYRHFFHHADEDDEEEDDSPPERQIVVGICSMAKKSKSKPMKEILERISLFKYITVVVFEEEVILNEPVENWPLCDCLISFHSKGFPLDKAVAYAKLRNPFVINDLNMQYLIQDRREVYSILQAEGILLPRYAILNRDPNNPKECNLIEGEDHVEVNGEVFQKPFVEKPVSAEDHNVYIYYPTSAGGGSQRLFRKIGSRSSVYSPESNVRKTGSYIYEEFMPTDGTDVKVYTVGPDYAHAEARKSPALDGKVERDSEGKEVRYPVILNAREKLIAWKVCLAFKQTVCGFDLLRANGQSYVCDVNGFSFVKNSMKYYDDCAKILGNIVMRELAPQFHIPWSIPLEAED
Put plainly: X-ray co-crystal structure (soak); also reverse-kinase inhibition assay (ATP generation from ADP and […]-[PP]2-InsP4). Type of test: biochemical.

Drawing on paper PMC6657673, “Synthesis of an α-phosphono-α,α-difluoroacetamide analogue of the diphosphoinositol pentakisphosphate 5-InsP7” (MedChemComm, 2019), this text covers IC50 for 1 molecule.

For orientation: IC50 means the concentration needed to halve the response being measured.

Consider `O=C(N[C@@H]1[C@@H](OP(=O)(O)O)[C@H](OP(=O)(O)O)[C@H](OP(=O)(O)O)[C@H](OP(=O)(O)O)[C@H]1OP(=O)(O)O)C(F)(F)P(=O)(O)O` [compound 1, 5-Deoxy-5-(phosphonodifluoroacetamido)-myo-inositol 1,2,3,4,6-pentakisphosphate], for which the IC50 amounted to 375 nM.
